Measurements from patent US20230295157A1, “3-(1H-IMIDAZOL-2-YL)-2,3,8,8A-TETRAHYDROINDOLIZIN-5(1H)-ONE DERIVATIVES USEFUL AS FACTOR XIA INHIBITORS” (JANSSEN PHARMACEUTICA NV, priority 2020, published 2023).
Like-named read-outs stand apart in the source and are kept apart here.

Experiments:
[1] = biological target: Factor XIa (Homo sapiens (Human), UniProt P03951); test: Factor XIa inhibition assay (FLINT) utilizing a fluorophore-quencher pair peptide substrate; type: biochemical; details: 30 min preincubation, kinetic reads over 30 min, read-out: FXIa Kin Inh IC50
Sequence of Factor XIa (P03951 388-625): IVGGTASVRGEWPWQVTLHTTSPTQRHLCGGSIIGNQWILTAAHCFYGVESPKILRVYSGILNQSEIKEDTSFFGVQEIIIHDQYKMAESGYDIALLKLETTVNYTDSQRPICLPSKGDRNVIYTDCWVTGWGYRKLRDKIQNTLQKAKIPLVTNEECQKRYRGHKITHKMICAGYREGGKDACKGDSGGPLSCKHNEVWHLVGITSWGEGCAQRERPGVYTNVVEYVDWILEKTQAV
Sequence of Factor XIa (P03951 19-387 partner): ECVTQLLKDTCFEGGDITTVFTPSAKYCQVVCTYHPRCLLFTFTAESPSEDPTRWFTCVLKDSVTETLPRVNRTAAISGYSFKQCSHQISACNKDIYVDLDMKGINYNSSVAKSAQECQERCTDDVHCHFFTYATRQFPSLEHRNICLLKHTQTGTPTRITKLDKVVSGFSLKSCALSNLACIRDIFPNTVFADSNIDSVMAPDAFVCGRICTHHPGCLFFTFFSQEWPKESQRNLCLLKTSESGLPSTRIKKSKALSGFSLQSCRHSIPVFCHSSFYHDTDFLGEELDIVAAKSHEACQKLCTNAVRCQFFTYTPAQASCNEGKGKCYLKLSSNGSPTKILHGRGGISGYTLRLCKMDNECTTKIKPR
Excerpt: Biological Example 1: Factor XIa Inhibition Assay Utilizing a Fluorophore-Quencher Pair Peptide Substrate
A fluorescence intensity (FLINT) based assay was used to monitor inhibition of Factor XIa. The peptide substrate, 5Fam-[…]-K5Tamra (purchased from New England Peptide) was chosen based on the FXI sequence. Conversion of zymogen […]. The custom peptide used in this assay was based on the Arg146 cleavage site of FXI. The peptide substrate was designed with a fluorophore-quencher pair, where the fluorescence is quenched until FXIa cleaves the 8-mer peptide after the Arg residue.
The Factor XIa FLINT assay was used with the following 5Fam-[…]-K5Tamra assay buffer: 50 mM Tris, pH 7.5, 100 mM NaCl, 5 mM CaCl2), 0.1 mg/mL BSA, 0.03% CHAPS. Assay buffer was prepared by mixing all ingredients fresh. 5Fam-[…]-K5Tamra peptide substrate was first prepared at 10 mM in 100% DMSO, then diluted to 3 mM in 100% DMSO. Assay buffer was then added directly to the 3 mM stock of substrate to prepare the 30 μM 2× working concentration (15 μM final concentration). The 2×Factor XIa stock solution was prepared by diluting 6.562 μM stock in 1×assay buffer for a 200 μM working stock solution (100 μM final concentration).
Test compound(s) were run in an 11-point, 3-fold serial dilution with a final top compound concentration of 100 nM. Final DMSO in assay was 2%. FXIa was preincubated with compound for 30-minutes and then substrate was added to initiate the reaction. The assay was run with kinetic (KIN) reads at 5 min intervals over 30 minutes. The time course was linear using 100 μM FXIa greater than 30 minutes. More specifically, the assay was run as follows: • 100 nL of 0.01 mM test compound was dispensed into black 384 well non-binding Greiner BioOne 784900 plate for 0.1 μM final concentration; • 5 μL of 1×assay buffer was dispensed to column 24 (low control) and 5 μL 2×Factor XIa solution was dispensed to columns 1-23 (column 23 high control); • the plate was centrifuged with a “cover” plate at 500 rpm for 1 min • the plate was pre-incubated for 30 minutes at room temperature with plate covered; • 5 μL of 2×5Fam-[…]-K5Tamra peptide substrate was dispensed into the entire plate, columns 1-24; • the plate was centrifuged with a “cover” plate at 500 rpm for 1 min; • the plate was read monitoring fluorescence intensity on the BMG PHERAStar at room temperature, using fluorescence module 485 nm/520 nm.
(§1) Percent inhibition (IC50) curves were generated per compound tested, and data was analyzed using a 4-parameter logistic fit using GeneData Screener. The relative fluorescence unit (RFU) values were normalized to percent inhibition using the following equation:
% inhibition=((HC-LC)−(compound−LC)/(HC-LC))*100
where LC—low control=mean signal of no Factor XIa or 100% inhibition of Factor XIa; HC—high control=mean signal of Factor XIa+5Fam-[…]-K5Tamra peptide substrate with DMSO only.
(§2) An 11-point dose response curve for the test compound(s) was generated using GENDATA to determine IC50 value based on the following equation:
Y=Bottom+(Top-Bottom)/(1+10^((logIC50-X)*HillSlope))
where Y is the % inhibition in the presence of X inhibitor concentration, Top=high control=mean signal of Factor XIa+5Fam-[…] K5Tamra peptide substrate with DMSO only; Bottom=low control−mean signal of no Factor XIa or 100% inhibition of Factor XIa; HillSlope—Hill coefficient; and IC50=concentration of compound with 50% inhibition in relation to top/high control.
Representative compounds of the present invention were tested according to the procedure described in Biological Example 1 and Biological Example 2 above, with results as listed in Table 3, below.

[2] = biological target: human plasma kallikrein (Homo sapiens (Human), UniProt P03952); test: Kallikrein inhibition assay (FLINT) utilizing a quenched AMC peptide substrate; type: biochemical; details: 30 min preincubation, kinetic reads over 30 min, Z-Gly-Pro-Arg-AMC substrate 50 μM; read-out: Kallikrein Kin Inh IC50
Sequence of human plasma kallikrein (P03952 391-638): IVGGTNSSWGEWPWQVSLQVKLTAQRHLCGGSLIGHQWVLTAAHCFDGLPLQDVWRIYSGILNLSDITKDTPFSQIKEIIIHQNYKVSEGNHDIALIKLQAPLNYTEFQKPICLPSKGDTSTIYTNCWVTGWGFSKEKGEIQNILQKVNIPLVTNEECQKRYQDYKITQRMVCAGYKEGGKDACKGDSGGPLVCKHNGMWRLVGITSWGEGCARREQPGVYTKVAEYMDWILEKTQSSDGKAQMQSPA
Sequence of human plasma kallikrein (P03952 20-390 partner): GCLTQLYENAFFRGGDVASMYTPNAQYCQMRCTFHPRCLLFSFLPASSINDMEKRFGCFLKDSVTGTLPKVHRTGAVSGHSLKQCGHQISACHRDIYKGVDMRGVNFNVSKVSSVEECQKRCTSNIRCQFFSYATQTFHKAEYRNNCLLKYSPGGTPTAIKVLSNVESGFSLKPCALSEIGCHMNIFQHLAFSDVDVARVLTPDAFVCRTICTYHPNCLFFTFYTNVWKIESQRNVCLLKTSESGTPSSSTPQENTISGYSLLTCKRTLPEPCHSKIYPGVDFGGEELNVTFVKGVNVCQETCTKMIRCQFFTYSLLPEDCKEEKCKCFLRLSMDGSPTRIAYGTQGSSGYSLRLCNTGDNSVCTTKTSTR
Protocol: Biological Example 2: Kallikrein Inhibition Assay Utilizing a Quenched AMC Peptide Substrate A fluorescence intensity (FLINT) based assay was used to monitor inhibition of human plasma kallikrein.
The Kallikrein FLINT assay was used with the following Z-Gly-Pro-Arg-AMC assay buffer: 50 mM Tris, pH 7.5, 100 mM NaCl, 5 mM CaCl2), 0.1 mg/mL BSA, 0.03% CHAPS. Assay buffer was prepared by mixing all ingredients fresh. 2×Z-Gly-Pro-Arg-AMC peptide substrate was prepared by diluting 10 mM stock into 1×assay buffer for a 100 μM working concentration (50 μM final concentration). The 2×kallikrein stock solution was prepared by diluting 14.76 μM stock in 1×assay buffer for a 4 nM working stock solution (2 nM final concentration).
Test compound(s) were run in an 11-point, 3-fold serial dilution with a final top compound concentration of 1 μM. Final DMSO in assay was 2%. Plasma kallikrein was pre-incubated for 30-minute with compound and then 50 μM substrate was added to initiate the reaction. The assay was run with kinetic (KIN) reads at 5 min intervals over 30 minutes. […] More specifically, the assay was run as follows: • 100 nL of 0.1 mM test compound was dispensed into black 384-well non-binding Greiner BioOne 784900 plate for 1 μM final concentration; • 5 μL of 1×assay buffer was dispensed to columns 24 (low control) and 5 μL 2×human kallikrein enzyme solution was dispensed to columns 1-23 (column 23 high control); • the plate was centrifuged with a “cover” plate at 500 rpm for 1 min • the plate was pre-incubated for 30 minutes at room temperature with plate covered; • 5 μL of 2×Z-Gly-Pro-Arg-AMC peptide substrate was dispensed into the entire plate, columns 1-24; • the plate was centrifuged with a “cover” plate at 500 rpm for 1 min; • the plate was read monitoring fluorescence intensity on the BMG PHERAStar at room temperature, using fluorescence module 340 nm/440 nm.
as §1
% inhibition=((HC-LC)−(compound-LC)\(HC-LC))*100 where LC—low control=mean signal of human kallikrein enzyme or 100% inhibition of human kallikrein enzyme; HC—high control=mean signal of Factor XIa+Z-Gly-Pro-Arg-AMC peptide substrate with DMSO only.
as §2
Y=Bottom+(Top-Bottom)/(1+10^((logIC50−X)*HillSlope)) where Y is the % inhibition in the presence of X inhibitor concentration, Top=high control=mean signal of human kallikrein enzyme+Z-Gly-Pro-Arg-AMC peptide substrate with DMSO only; Bottom=low control−mean signal of no human kallikrein enzyme or 100% inhibition of human kallikrein enzyme; HillSlope—Hill coefficient; and IC50=concentration of compound with 50% inhibition in relation to top/high control.

[3] = 5Fam-[…]-K5Tamra substrate 15 μM

Row | SMILES | IC50 [1, 3] [nM] | IC50 [2] [nM] | IC50 ([1]; 5Fam-KLTRAETV-K5Tamra substrate 15 μM) [nM]
1 | O=C1C=C(c2c(-n3cnnn3)ccc(Cl)c2F)C[C@@H]2CC[C@@H](c3ncc(-c4ccnc([C@H](O)C(F)(F)F)c4)[nH]3)N12 (relative stereo) [Example 174, (3S*,8aS*)-7-(3-chloro-2-fluoro-6-(1H-tetrazol-1-yl)phenyl)-3-(5-(2-((S*)-2,2,2-trifluoro-1-hydroxyethyl)pyridin-4-yl)-1H-imidazol-2-yl)-2,3,8,8a-tetrahydroindolizin-5(1H)-one] | 18.1 | 25.9 | –
2 | O=C1C=C(c2c(-n3cnnn3)ccc(Cl)c2F)C[C@H]2CC[C@@H](c3ncc(-c4ccnc([C@@H](O)C(F)(F)F)c4)[nH]3)N12 (relative stereo) [Example 175, (3S*,8 aR*)-7-(3-chloro-2-fluoro-6-(1H-tetrazol-1-yl)phenyl)-3-(5-(2-((R*)-2,2,2-trifluoro-1-hydroxyethyl)pyridin-4-yl)-1H-imidazol-2-yl)-2,3,8,8a-tetrahydroindolizin-5(1H)-one] | 9.5 | 30.3 | –
3 | NC(=O)c1ccc(-c2cnc([C@@H]3CC[C@@H]4CC(c5c(-n6cnnn6)ccc(Cl)c5F)=CC(=O)N43)[nH]2)s1 (relative stereo) [Example 238, 5-(2-((3*S,8aR)-7-(3-Chloro-2-fluoro-6-(1H-tetrazol-1-yl)phenyl)-5-oxo-1,2,3,5,8,8a-hexahydroindolizin-3-yl)-1H-imidazol-5-yl)thiophene-2-carboxamide] | 0.2 | 0.7 | –
4 | O=C(Nc1cnccc1-c1c[nH]c([C@@H]2CC[C@@H]3CC(c4c(-n5cnnn5)ccc(Cl)c4F)=CC(=O)N32)n1)C1CC1 (relative stereo) [Example 249, N-(4-(2-((3S,8a*R)-7-(3-Chloro-2-fluoro-6-(1H-tetrazol-1-yl)phenyl)-5-oxo-1,2,3,5,8,8a-hexahydroindolizin-3-yl)-1H-imidazol-4-yl)pyridin-3-yl)cyclopropanecarboxamide] | 0.2 | 0.4 | –
5 | O=C(Nc1cnccc1-c1c[nH]c([C@@H]2CC[C@H]3CC(c4c(-n5cnnn5)ccc(Cl)c4F)=CC(=O)N32)n1)C1CC1 (relative stereo) [Example 250, N-(4-(24(3S,8aS*)-7-(3-choro-2-fluoro-6-(1H-tetrazol-1-yl)phenyl)-5-oxo-1,2,3,5,8,8a-hexahydroindolizin-3-yl)-1H-imidazol-4-yl)pyridin-3-yl)cyclopropanecarboxamide] | 0.2 | 0.7 | –
6 | O=C1Nc2ccc(-c3cnc([C@@H]4CC[C@@H]5CC(c6c(-n7cnnn7)ccc(Cl)c6F)=CC(=O)N54)[nH]3)cc2CO1 (relative stereo) [Example 277, 6-(2-((3S,8aR)-7-(3-Chloro-2-fluoro-6-(1H-tetrazol-1-yl)phenyl)-5-oxo-1,2,3,5,8,8a-hexahydroindolizin-3-yl)-1H-imidazol-5-yl)-1,4-dihydro-2H-benzo[d][1,3]oxazin-2-one] | 0.2 | 1.1 | –
7 | O=C1Nc2ccc(-c3cnc([C@@H]4CC[C@H]5CC(c6c(-n7cnnn7)ccc(Cl)c6F)=CC(=O)N54)[nH]3)cc2CO1 (relative stereo) [Example 278] | 0.5 | 1.9 | –
8 | O=C1CCc2cc(-c3cnc([C@@H]4CC[C@H]5CC(c6c(-n7cnnn7)ccc(Cl)c6F)=CC(=O)N54)[nH]3)ccc2N1 (relative stereo) [Example 280, 6-(2-((3S,8aS)-7-(3-Chloro-2-fluoro-6-(1H-tetrazol-1-yl)phenyl)-5-oxo-1,2,3,5,8,8a-hexahydroindolizin-3-yl)-1H-imidazol-5-yl)-3,4-dihydroquinolin-2(1H)-one] | 0.6 | 1.2 | –
9 | O=C1CCc2cc(-c3cnc([C@@H]4CC[C@@H]5CC(c6c(-n7cnnn7)ccc(Cl)c6F)=CC(=O)N54)[nH]3)ccc2N1 (relative stereo) [Example 281, 6-(2-((3S,8aR)-7-(3-Chloro-2-fluoro-6-(1H-tetrazol-1-yl)phenyl)-5-oxo-1,2,3,5,8,8a-hexahydroindolizin-3-yl)-1H-imidazol-5-yl)-3,4-dihydroquinolin-2(1H)-one] | 0.3 | 0.8 | –
10 | CNc1ccc(-c2cnc([C@@H]3CC[C@@H]4CC(c5c(-n6cnnn6)ccc(Cl)c5F)=CC(=O)N43)[nH]2)c(F)n1 (relative stereo) [Example 282, (3S,8aR)-7-(3-Chloro-2-fluoro-6-(1H-tetrazol-1-yl)phenyl)-3-(5-(2-fluoro-6-(methylamino)pyridin-3-yl)-1H-imidazol-2-yl)-2,3,8,8a-tetrahydroindolizin-5(1H)-one] | 1.2 | 9 | –
11 | CCC(=O)Nc1ccccc1-c1c[nH]c([C@@H]2CC[C@H]3CC(c4c(-n5cnnn5)ccc(Cl)c4F)=CC(=O)N32)n1 (relative stereo) [Example 296, N-(2-(24(3S,8aS*)-7-(3-Chloro-2-fluoro-6-(1H-tetrazol-1-yl)phenyl)-5-oxo-1,2,3,5,8,8a-hexahydroindolizin-3-yl)-1H-imidazol-4-yl)phenyl)propionamide] | – | 5.4 | 0.6
12 | Cn1c(=O)[nH]c2ccc(-c3cnc([C@@H]4CC[C@H]5CC(c6c(-n7cnnn7)ccc(Cl)c6F)=CC(=O)N54)[nH]3)cc21 (relative stereo) [Example 299, 6-(2-((3S,8aS*)-7-(3-Chloro-2-fluoro-6-(1H-tetrazol-1-yl)phenyl)-5-oxo-1,2,3,5,8,8a-hexahydroindolizin-3-yl)-1H-imidazol-5-yl)-1-methyl-1H-benzo[d]imidazol-2(3H)-one] | 5.2 | 5.6 | –
